Patent US10766928B2, “Targeted conformationally-constrained kinked endosomal disrupting peptides” (priority 2012, dated 2020)
≈ marks a conversion by molar mass, not a printed value. Read-outs that look alike come from different tables or passages of the source. Non-standard residues stand in square brackets, D forms with d. Residues, ends and D or L forms follow the SMILES beside them. *: point of attachment. Pentanoyl(5-NH-cholesteryl) = CC(C)CCC[C@@H](C)[C@H]1CC[C@H]2[C@@H]3CC=C4C[C@@H](NCCCCC(=O)*)CC[C@]4(C)[C@H]3CC[C@]12C; Cholesteryloxycarbonyl = CC(C)CCC[C@@H](C)[C@H]1CC[C@H]2[C@@H]3CC=C4C[C@@H](OC(=O)*)CC[C@]4(C)[C@H]3CC[C@]12C; Palmitoyl = CCCCCCCCCCCCCCCC(=O)*; PEG3 = NCCOCCOCCOCCC(=O)O; Pra = C#CC[C@H](N)C(=O)O; Aib = CC(C)(N)C(=O)O; Ahx = NCCCCCC(=O)O; Ava = NCCCCC(=O)O; βAla = NCCC(=O)O

Columns and labels:
[1] = system: endosomes of Jurkat lymphocytes; experiment: Endosome disruption in Jurkat lymphocytes: release of carboxyfluorescein from disulfide probe Compound 2, flow cytometry; details: for Efficacy (% of max. 1): % change in cellular fluorescence relative to maximal response of Compound 1 (100%); for Efficacy (% of max. 1) / Efficacy (% of 1): Jurkat; for Efficacy (% of 1): % of the effect of compound 1, calculated span of dose-response curve, ± standard deviation
Procedure, shortened: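 Human Jurkat cells treated with compounds plus disulfide probe Compound 2 (2.5 μM) for 14 h at 37 °C. Cytoplasmic release of pH-sensitive fluorophore Compound 3 quantified by flow cytometry. IC50 by non-linear regression; efficacy as % fluorescence change relative to Compound 1 maximum (100%).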

[2] = system: Jurkat lymphocytes
[3] = Thermodynamic solubility in PBS (pH 7.4); format: physicochemical; details: for solubility thermodynamic at 24 h / solubility at 24 h: phosphate buffered saline
Description: Values in parentheses represent 95% confidence intervals. N.D., not determined.
Measurements represent duplicate or more replicates, with active peptides subjected to multiple replicates. ND: not determined. The peptide was non-toxic and soluble in cell culture medium at this concentration.

[4] = read-out: Potency (EC50), Table 1, Jurkat lymphocytes, probe Compound 2 (2.5 μM), 14 hours, 95% confidence interval in neighbouring cell
[5] = read-out: Potency, Table 2, EC50 ± standard deviation, Jurkat lymphocytes, disulfide-linked fluorescent probe (2.5 μM), 14 h
[6] = read-out: Toxicity, Table 3, IC50, Jurkat, 48 h at 37° C., footnote a: non-toxic and soluble in cell culture medium at this concentration
[7] = pH 7.4, Table 1, PBS pH 7.4, 24 hours at 22° C., ±S.D., read-out: Solubility (aq.)
[8] = pH 7.4, Table 3, PBS pH 7.4, 24 h at 22° C., read-out: Solubility
[9] = Table 1, PBS pH 7.4, 24 hours at 22° C., ±S.D., read-out: Solubility (aq.)

| EC50 [1, 5] [µM] | solubility thermodynamic at 24 h [3, 8] [µM] | Structure (SMILES) | Efficacy (% of 1) ([1]; Table 2, 14 h) [%] | IC50 [2, 6] [µM] | solubility thermodynamic at 24 h [3, 7] [µM] | EC50 ([1]; 14 h) [µM] | IC50 ([2]; 48 h) [µM] | other results |
| --- | --- | --- | --- | --- | --- | --- | --- | --- |
| – | – | CCCCCCCCCCCCCCCC(=O)NCCCCC(=O)NCCC(=O)N[C@@H](CCC(=O)O)C(=O)N[C@@H](CCC(=O)O)C(=O)NCCOCCOCCOCCC(=O)NCCOCCOCCOCCC(=O)NC(C)(C)C(=O)NC(C)(C)C(=O)NC(C)(C)C(=O)NC(C)(C)C(=O)N[C@@H](Cc1c[nH]c2ccccc12)C(=O)N[C@@H](Cc1c[nH]c2ccccc12)C(=O)N[C@@H](C)C(=O)N[C@@H](Cc1ccc(O)cc1)C(=O)N[C@@H](Cc1c[nH]c2ccccc12)C(=O)N1CCC[C@H]1C(=O)N1CCC[C@H]1C(=O)N[C@H](C(=O)N[C@@H](C)C(N)=O)C(C)C [Compound 32, R′ - BEEOOUUUUWWAYWPPVA-CONH2] ({Palmitoyl-Ava-βAla}-EE[PEG3][PEG3][Aib][Aib][Aib][Aib]WWAYWPPVA-NH2) | – | – | – | – | – | Efficacy (% of max. 1) ([1]; Table 1, 14 hours): 121%; Potency relative to Compound 26 ([1]; palmitic acid derivative vs cholesterylamine): sevenfold less potent; EC50 [1, 4]: 0.7 µM; IC50 ([2]; read-out: Toxicity (IC50), Table 1, Jurkat lymphocytes, 48 h at 37° C.): 16 µM; Solubility in PBS relative to Compound 26 ([3]; PBS): sixtyfold more soluble; solubility at 24 h [3, 9]: 856 µM (≈ 2220 µg/mL) |
| – | – | C#CC[C@H](NC(=O)CCNC(=O)CCNC(=O)O[C@H]1CC[C@@]2(C)C(=CC[C@H]3[C@@H]4CC[C@H]([C@H](C)CCCC(C)C)[C@@]4(C)CC[C@@H]32)C1)C(=O)NCCOCCOCCOCCC(=O)NCCOCCOCCOCCC(=O)NC(C)(C)C(=O)NC(C)(C)C(=O)NC(C)(C)C(=O)NC(C)(C)C(=O)N[C@@H](Cc1c[nH]c2ccccc12)C(=O)N[C@@H](Cc1c[nH]c2ccccc12)C(=O)N[C@@H](C)C(=O)N[C@@H](Cc1ccc(O)cc1)C(=O)N[C@@H](Cc1c[nH]c2ccccc12)C(=O)N1CCC[C@H]1C(=O)N1CCC[C@H]1C(=O)N[C@H](C(=O)N[C@@H](C)C(N)=O)C(C)C [Compound 33, R″ = BZOOUUUUWWAYWPPVA-CONH2] ({Cholesteryloxycarbonyl-βAla-βAla}-[Pra][PEG3][PEG3][Aib][Aib][Aib][Aib]WWAYWPPVA-NH2) | – | – | – | 0.13 | > 100 | solubility at 24 h [3, 9]: 2 µM (≈ 5.14 µg/mL) |
| – | – | C#CC[C@H](NC(=O)[C@H](CCC(=O)O)NC(=O)[C@H](CCC(=O)O)NC(=O)CCNC(=O)CCCCN[C@H]1CC[C@@]2(C)C(=CC[C@H]3[C@@H]4CC[C@H]([C@H](C)CCCC(C)C)[C@@]4(C)CC[C@@H]32)C1)C(=O)NCCOCCOCCOCCC(=O)NCCOCCOCCOCCC(=O)NC(C)(C)C(=O)NC(C)(C)C(=O)NC(C)(C)C(=O)NC(C)(C)C(=O)N[C@@H](Cc1c[nH]c2ccccc12)C(=O)N[C@@H](Cc1c[nH]c2ccccc12)C(=O)N[C@@H](C)C(=O)N[C@@H](Cc1ccc(O)cc1)C(=O)N[C@@H](Cc1c[nH]c2ccccc12)C(=O)N1CCC[C@H]1C(=O)N1CCC[C@H]1C(=O)N[C@H](C(=O)N[C@@H](C)C(N)=O)C(C)C [Compound 31, R = BEEZOOUUUUWWAYWPPVA-CONH2] ({Pentanoyl(5-NH-cholesteryl)-βAla}-EE[Pra][PEG3][PEG3][Aib][Aib][Aib][Aib]WWAYWPPVA-NH2) | – | – | < 5 | 0.08 | 4 | Solubility (aq., μM) ([3]; Table 1, PBS pH 7.4, 24 hours at 22° C., ±S.D.): 5 ± 1 µM (≈ 14.1 µg/mL) |
| 0.28 ± 0.1 | 5 ± 2 (≈ 9.7 µg/mL) | CC(C)[C@H](NC(=O)[C@@H](NC(=O)[C@@H]1CCCN1C(=O)[C@@H]1CCCN1C(=O)[C@H](Cc1ccc(O)cc1)NC(=O)[C@H](Cc1c[nH]c2ccccc12)NC(=O)[C@H](C)NC(=O)[C@H](Cc1ccc(O)cc1)NC(=O)[C@H](Cc1c[nH]c2ccccc12)NC(=O)[C@H](C)NC(=O)[C@H](Cc1ccc(O)cc1)NC(=O)[C@H](Cc1c[nH]c2ccccc12)NC(=O)C(C)(C)NC(=O)C(C)(C)NC(=O)C(C)(C)NC(=O)C(C)(C)N)C(C)C)C(N)=O [Compound 80] (H-[Aib][Aib][Aib][Aib]WYAWYAWYPPVV-NH2) | 113 ± 4 | > 16 | – | – | – | – |
| – | – | CC(C)CCC[C@@H](C)[C@H]1CC[C@H]2[C@@H]3CC=C4C[C@@H](NCCCCC(=O)NCCC(=O)N[C@@H](CCC(=O)O)C(=O)N[C@@H](CCC(=O)O)C(=O)NCCCCCC(=O)NCCCCCC(=O)NC(C)(C)C(=O)NC(C)(C)C(=O)NC(C)(C)C(=O)NC(C)(C)C(=O)N[C@@H](Cc5ccc(O)cc5)C(=O)N[C@@H](Cc5ccc(O)cc5)C(=O)N[C@@H](C)C(=O)N[C@@H](Cc5ccc(O)cc5)C(=O)N[C@@H](Cc5ccc(O)cc5)C(=O)N5CCC[C@H]5C(=O)N5CCC[C@H]5C(=O)N[C@H](C(=O)N[C@H](C(N)=O)C(C)C)C(C)C)CC[C@]4(C)[C@H]3CC[C@]12C [Compound 25, R = BEEXXUUUUYYAYYPPVV-CONH2] ({Pentanoyl(5-NH-cholesteryl)-βAla}-EE[Ahx][Ahx][Aib][Aib][Aib][Aib]YYAYYPPVV-NH2) | – | – | 22 ± 1 (≈ 54.9 µg/mL) | 0.09 | 9 | – |
| – | – | C#CC[C@H](NC(=O)[C@H](CCC(=O)O)NC(=O)[C@H](CCC(=O)O)NC(=O)CCNC(=O)CCNC(=O)O[C@H]1CC[C@@]2(C)C(=CC[C@H]3[C@@H]4CC[C@H]([C@H](C)CCCC(C)C)[C@@]4(C)CC[C@@H]32)C1)C(=O)NCCOCCOCCOCCC(=O)NCCOCCOCCOCCC(=O)NC(C)(C)C(=O)NC(C)(C)C(=O)NC(C)(C)C(=O)NC(C)(C)C(=O)N[C@@H](Cc1c[nH]c2ccccc12)C(=O)N[C@@H](Cc1c[nH]c2ccccc12)C(=O)N[C@@H](C)C(=O)N[C@@H](Cc1ccc(O)cc1)C(=O)N[C@@H](Cc1c[nH]c2ccccc12)C(=O)N1CCC[C@H]1C(=O)N1CCC[C@H]1C(=O)N[C@H](C(=O)N[C@@H](C)C(N)=O)C(C)C [Compound 35, R″ = BEEZOOUUUUWWAYWPPVA-CONH2] ({Cholesteryloxycarbonyl-βAla-βAla}-EE[Pra][PEG3][PEG3][Aib][Aib][Aib][Aib]WWAYWPPVA-NH2) | – | – | 649 ± 11 (≈ 1840 µg/mL) | 0.11 | 13 | Difference in solubility relative to Compound 31 ([3]; PBS): greater than hundredfold |
| 0.22 ± 0.06 | 2 ± 1 (≈ 3.97 µg/mL) | CC(C)[C@H](NC(=O)[C@@H](NC(=O)[C@@H]1CCCN1C(=O)[C@@H]1CCCN1C(=O)[C@H](Cc1ccc(O)cc1)NC(=O)[C@H](Cc1c[nH]c2ccccc12)NC(=O)[C@H](C)NC(=O)[C@H](Cc1c[nH]c2ccccc12)NC(=O)[C@H](Cc1c[nH]c2ccccc12)NC(=O)[C@H](C)NC(=O)[C@H](Cc1c[nH]c2ccccc12)NC(=O)[C@H](Cc1c[nH]c2ccccc12)NC(=O)C(C)(C)NC(=O)C(C)(C)NC(=O)C(C)(C)NC(=O)C(C)(C)N)C(C)C)C(N)=O [Compound 79] (H-[Aib][Aib][Aib][Aib]WWAWWAWYPPVV-NH2) | 86 ± 5 | > 16 | – | – | – | – |
| 0.8 ± 0.2 | 2 ± 1 (≈ 3.96 µg/mL) | CC(=O)NC(C)(C)C(=O)NC(C)(C)C(=O)NC(C)(C)C(=O)NC(C)(C)C(=O)N[C@@H](Cc1c[nH]c2ccccc12)C(=O)N[C@@H](Cc1ccc(O)cc1)C(=O)N[C@@H](C)C(=O)N[C@@H](Cc1c[nH]c2ccccc12)C(=O)N[C@@H](Cc1ccc(O)cc1)C(=O)N[C@@H](C)C(=O)N[C@@H](Cc1c[nH]c2ccccc12)C(=O)N[C@@H](Cc1ccc(O)cc1)C(=O)N1CCC[C@H]1C(=O)N1CCC[C@H]1C(=O)N[C@H](C(=O)N[C@H](C(N)=O)C(C)C)C(C)C [Compound 82] (Ac-[Aib][Aib][Aib][Aib]WYAWYAWYPPVV-NH2) | 85 ± 7 | > 16 | – | – | – | – |
| – | – | CC(C)CCC[C@@H](C)[C@H]1CC[C@H]2[C@@H]3CC=C4C[C@@H](NCCCCC(=O)NCCC(=O)N[C@@H](CCC(=O)O)C(=O)N[C@@H](CCC(=O)O)C(=O)NCCCCCC(=O)NC(C)(C)C(=O)NC(C)(C)C(=O)NC(C)(C)C(=O)N[C@@H](Cc5c[nH]c6ccccc56)C(=O)N[C@@H](Cc5c[nH]c6ccccc56)C(=O)N[C@@H](C)C(=O)N[C@@H](Cc5ccc(O)cc5)C(=O)N[C@@H](Cc5c[nH]c6ccccc56)C(=O)N5CCC[C@H]5C(=O)N5CCC[C@H]5C(=O)N[C@H](C(=O)N[C@@H](C)C(N)=O)C(C)C)CC[C@]4(C)[C@H]3CC[C@]12C [Compound 9, R = BEEXUUUWWAYWPPVA-CONH2] ({Pentanoyl(5-NH-cholesteryl)-βAla}-EE[Ahx][Aib][Aib][Aib]WWAYWPPVA-NH2) | – | – | 12 ± 1 (≈ 28.1 µg/mL) | 0.4 | 11 | – |

| Structure (SMILES) | EC50 [1, 5] [µM] | solubility thermodynamic at 24 h [3, 8] [µM] | Efficacy (% of 1) ([1]; Table 2, 14 h) [%] | IC50 [2, 6] [µM] | solubility thermodynamic at 24 h [3, 7] [µM] | EC50 ([1]; 14 h) [µM] | IC50 ([2]; 48 h) [µM] | other results |
| --- | --- | --- | --- | --- | --- | --- | --- | --- |
| CC(C)[C@H](NC(=O)[C@@H](NC(=O)[C@@H]1CCCN1C(=O)[C@@H]1CCCN1C(=O)[C@H](Cc1c[nH]c2ccccc12)NC(=O)[C@H](Cc1ccc(O)cc1)NC(=O)[C@H](C)NC(=O)[C@H](Cc1c[nH]c2ccccc12)NC(=O)[C@H](Cc1c[nH]c2ccccc12)NC(=O)C(C)(C)NC(=O)C(C)(C)NC(=O)C(C)(C)NC(=O)C(C)(C)N)C(C)C)C(N)=O [Compound 44] (H-[Aib][Aib][Aib][Aib]WWAYWPPVV-NH2) | 5 ± 1 | 22 ± 1 (≈ 33.9 µg/mL) | 98 ± 2 | > 16 | 22 ± 1 (≈ 33.9 µg/mL) | – | – | Efficacy (% of max. 1) ([1]; Table 1, 14 hours): 97%; EC50 [1, 4]: 5.2 µM |
